Experimental data from ChEMBL document CHEMBL3885861, “Open TG-GATES”.

Organism: Rattus norvegicus
Experiment: Open TG-GATES - Regimen: Single
Assay type: toxicity, organism-based, Sprague-Dawley
Parameters: regimen Single, gender Male, age 6 weeks
Conditions: in vivo, po, 10 mg/kg, route gavage, dose level Low; for APTT / Bas / Eos / Fbg / Hb / Ht / Lym / MCH / MCHC / MCV / Mono / Neu / PT / Plat / RBC / Ret / WBC: tissue Blood; for KIDNEY_L / KIDNEY_R / KIDNEY_TOTAL: tissue Kidney; for LIVER: tissue Liver; for A/G / ALP / ALT / AST / BUN / CRE / Ca / Cl / DBIL / GLC / IP / K / LDH / Na / PL / RALB / TBIL / TC / TG / TP / gamma-GTP: tissue Plasma

For OCCOCCN1CCN(C(c2ccccc2)c2ccc(Cl)cc2)CC1 (configuration not stated) [HYDROXYZINE], the TERMINAL_BW (3 h) was 192.7 g, the APTT (3 h) was 15.4 s and the Bas (3 h) was 0.4%. It also gave an Eos (3 h) of 0.6%, a Fbg (3 h) of 276.8 mg/dL and a Hb (3 h) of 12.7 g/dL. For the same molecule, the Ht (3 h) was 39.3%, the Lym (3 h) was 80.6% and the MCH (3 h) was 21.7 pg. It also gave an MCHC (3 h) of 32.3%, an MCV (3 h) of 67 fL and a Mono (3 h) of 2.6%. For the same molecule, the Neu (3 h) was 15.2%, the PT (3 h) was 15.1 s and the Plat (3 h) was 113 x10_4/uL. For the same molecule, the RBC (3 h) was 587.8 x10_4/ul, the Ret (3 h) was 9.1% and the WBC (3 h) was 89.2 x10_2/uL. The KIDNEY_L (3 h) was 0.8 g, the KIDNEY_R (3 h) was 0.9 g and the KIDNEY_TOTAL (3 h) was 1.7 g. The LIVER (3 h) was 9 g, the A/G (3 h) was 0.8 and the ALP (3 h) was 1362.6 IU/L. For the same molecule, the ALT (3 h) was 43.4 IU/L, the AST (3 h) was 75.6 IU/L and the BUN (3 h) was 11.2 mg/dL. The CRE (3 h) was 0.2 mg/dL, the Ca (3 h) was 11.1 mg/dL and the Cl (3 h) was 105.2 meq/L. The DBIL (3 h) was 0.016 mg/dL, the GLC (3 h) was 176.6 mg/dL and the IP (3 h) was 9.4 mg/dL. For the same molecule, the K (3 h) was 4.4 meq/L, the LDH (3 h) was 80.4 IU/L and the Na (3 h) was 141.6 meq/L. It also gave a PL (3 h) of 137.2 mg/dL, an RALB (3 h) of 2.4 g/dL and a TBIL (3 h) of 0.064 mg/dL. For the same molecule, the TC (3 h) was 74.6 mg/dL, the TG (3 h) was 46.2 mg/dL and the TP (3 h) was 5.3 g/dL. The gamma-GTP (3 h) was 1 IU/L, the TERMINAL_BW (6 h) was 193.5 g and the APTT (6 h) was 15.7 s. The Bas (6 h) was 0%, the Eos (6 h) was 0.8% and the Fbg (6 h) was 285.2 mg/dL. It also gave a Hb (6 h) of 12.8 g/dL, a Ht (6 h) of 40.3% and a Lym (6 h) of 75.8%. It also gave an MCH (6 h) of 21.3 pg, an MCHC (6 h) of 31.8% and an MCV (6 h) of 67.1 fL. It also gave a Mono (6 h) of 2.6%, a Neu (6 h) of 20.2% and a PT (6 h) of 15.2 s. For the same molecule, the Plat (6 h) was 114.7 x10_4/uL, the RBC (6 h) was 601.2 x10_4/ul and the Ret (6 h) was 9.2%. It also gave a WBC (6 h) of 77.4 x10_2/uL, a KIDNEY_L (6 h) of 0.9 g and a KIDNEY_R (6 h) of 0.9 g. The KIDNEY_TOTAL (6 h) was 1.7 g, the LIVER (6 h) was 8.1 g and the A/G (6 h) was 0.9. The ALP (6 h) was 1554.6 IU/L, the ALT (6 h) was 46.8 IU/L and the AST (6 h) was 83.2 IU/L. For the same molecule, the BUN (6 h) was 9 mg/dL, the CRE (6 h) was 0.2 mg/dL and the Ca (6 h) was 10.9 mg/dL. For the same molecule, the Cl (6 h) was 106.2 meq/L, the DBIL (6 h) was 0.006 mg/dL and the GLC (6 h) was 175.2 mg/dL. It also gave an IP (6 h) of 10.1 mg/dL, a K (6 h) of 4.3 meq/L and an LDH (6 h) of 80.2 IU/L. For the same molecule, the Na (6 h) was 142.8 meq/L, the PL (6 h) was 139.4 mg/dL and the RALB (6 h) was 2.5 g/dL. It also gave a TBIL (6 h) of 0.062 mg/dL, a TC (6 h) of 78.8 mg/dL and a TG (6 h) of 32.4 mg/dL. For the same molecule, the TP (6 h) was 5.3 g/dL, the gamma-GTP (6 h) was 0.8 IU/L and the TERMINAL_BW (9 h) was 190.5 g. The APTT (9 h) was 16.2 s, the Bas (9 h) was 0% and the Eos (9 h) was 0.4%. For the same molecule, the Fbg (9 h) was 288.8 mg/dL, the Hb (9 h) was 12.8 g/dL and the Ht (9 h) was 39.6%. For the same molecule, the Lym (9 h) was 71.2%, the MCH (9 h) was 21.3 pg and the MCHC (9 h) was 32.3%. For the same molecule, the MCV (9 h) was 65.7 fL, the Mono (9 h) was 3% and the Neu (9 h) was 24%. It also gave a PT (9 h) of 15.2 s, a Plat (9 h) of 118.3 x10_4/uL and an RBC (9 h) of 601.8 x10_4/ul. The Ret (9 h) was 8.2%, the WBC (9 h) was 63.8 x10_2/uL and the KIDNEY_L (9 h) was 0.9 g. It also gave a KIDNEY_R (9 h) of 0.8 g, a KIDNEY_TOTAL (9 h) of 1.7 g and an LIVER (9 h) of 7.9 g. For the same molecule, the A/G (9 h) was 0.8, the ALP (9 h) was 1271.4 IU/L and the ALT (9 h) was 37.4 IU/L. For the same molecule, the AST (9 h) was 70.2 IU/L, the BUN (9 h) was 9.2 mg/dL and the CRE (9 h) was 0.2 mg/dL. For the same molecule, the Ca (9 h) was 10.7 mg/dL, the Cl (9 h) was 106.8 meq/L and the DBIL (9 h) was 0.012 mg/dL. The GLC (9 h) was 184.6 mg/dL, the IP (9 h) was 10.2 mg/dL and the K (9 h) was 4.1 meq/L. It also gave an LDH (9 h) of 78.8 IU/L, a Na (9 h) of 142.4 meq/L and a PL (9 h) of 139.4 mg/dL. It also gave an RALB (9 h) of 2.5 g/dL, a TBIL (9 h) of 0.062 mg/dL and a TC (9 h) of 81.4 mg/dL. The TG (9 h) was 29.4 mg/dL, the TP (9 h) was 5.5 g/dL and the gamma-GTP (9 h) was 1 IU/L. For the same molecule, the TERMINAL_BW (24 h) was 210.3 g, the APTT (24 h) was 15 s and the Bas (24 h) was 0%. It also gave an Eos (24 h) of 1%, a Fbg (24 h) of 276.8 mg/dL and a Hb (24 h) of 12.7 g/dL. The Ht (24 h) was 39.6%, the Lym (24 h) was 73.4% and the MCH (24 h) was 21.9 pg. The MCHC (24 h) was 32%, the MCV (24 h) was 68.5 fL and the Mono (24 h) was 2.8%. The Neu (24 h) was 22.6%, the PT (24 h) was 16 s and the Plat (24 h) was 121.3 x10_4/uL. For the same molecule, the RBC (24 h) was 578.6 x10_4/ul, the Ret (24 h) was 8.8% and the WBC (24 h) was 79 x10_2/uL. For the same molecule, the KIDNEY_L (24 h) was 0.9 g, the KIDNEY_R (24 h) was 0.9 g and the KIDNEY_TOTAL (24 h) was 1.8 g. For the same molecule, the LIVER (24 h) was 10.1 g, the A/G (24 h) was 0.9 and the ALP (24 h) was 1714.2 IU/L. For the same molecule, the ALT (24 h) was 45.2 IU/L, the AST (24 h) was 71.4 IU/L and the BUN (24 h) was 14.2 mg/dL. The CRE (24 h) was 0.2 mg/dL, the Ca (24 h) was 11.4 mg/dL and the Cl (24 h) was 106 meq/L. It also gave a DBIL (24 h) of 0.02 mg/dL, a GLC (24 h) of 177.6 mg/dL and an IP (24 h) of 8.2 mg/dL. It also gave a K (24 h) of 4.3 meq/L, an LDH (24 h) of 104.2 IU/L and a Na (24 h) of 142.8 meq/L. It also gave a PL (24 h) of 147.4 mg/dL, an RALB (24 h) of 2.6 g/dL and a TBIL (24 h) of 0.058 mg/dL. The TC (24 h) was 77.2 mg/dL, the TG (24 h) was 69.4 mg/dL and the TP (24 h) was 5.6 g/dL. For the same molecule, the gamma-GTP (24 h) was 1 IU/L.
